Measured values: patent US12595261B2, “P2X3 and/or P2X2/3 receptor antagonist, pharmaceutical composition containing same, and use thereof” (BEIJING TIDE PHARMACEUTICAL CO., LTD., priority 2019, dated 2026)

How the values were obtained:
Human P2X3 receptor = target: T1, Human P2X3 receptor (Homo sapiens, UniProt P56373); test: Inhibitory activity on human P2X3 receptor (FLIPR calcium 6 assay, HEK293-P2X3 cells, agonist α,β-MeATP); format: cell-based; conditions: HEK293-P2X3 stably expressing cell line, FLIPR Tetra
T1 construct: expressed in transfected cells; host or cells: HEK293 (stably expressing)
T1 sequence (P56373 1-397): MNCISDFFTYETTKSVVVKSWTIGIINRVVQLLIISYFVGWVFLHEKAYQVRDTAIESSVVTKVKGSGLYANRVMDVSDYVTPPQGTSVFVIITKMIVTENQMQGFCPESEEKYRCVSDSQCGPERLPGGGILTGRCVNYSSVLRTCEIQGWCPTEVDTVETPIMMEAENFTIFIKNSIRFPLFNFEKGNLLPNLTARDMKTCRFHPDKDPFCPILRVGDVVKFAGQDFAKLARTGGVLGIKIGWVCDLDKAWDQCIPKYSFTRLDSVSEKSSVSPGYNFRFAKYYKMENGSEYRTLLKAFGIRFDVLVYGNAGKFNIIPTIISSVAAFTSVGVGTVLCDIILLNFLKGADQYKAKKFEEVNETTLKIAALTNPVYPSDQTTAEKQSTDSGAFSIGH
Protocol: (§1) Biological Assay: Determination of the Inhibitory Activity of the Compounds on Human P2X3 and P2X2/3 Receptors
(§2) Cells were seeded into a poly-D-lysine-coated 384-well cell culture plate (Corning) at a density of 11,000 cells/well/25 μL of cell inoculation medium, and were cultured in a cell incubator overnight. On the day of the test, the calcium 6 dye was diluted to a 2× concentration with an assay buffer, 25 μL of the 2× calcium 6 dye was added to the 384-well cell culture plate, which was incubated at 37° C. for 2 hours, and then placed at room temperature for further use. The test compound and the agonist, α,β-MeATP were diluted to a 7× concentration with the assay buffer, 10 μL of the 7× test compound was added to the 384-well cell culture plate, which was incubated at room temperature for 15 minutes, and 10 μL of the 7× α,β-MeATP was transferred into the 384-well cell culture plate. […]

Human P2X2/3 receptor = target: T2, Human P2X2/3 receptor (Homo sapiens, UniProt P56373+Q9UBL9); test: Inhibitory activity on human P2X2/3 receptor (FLIPR calcium 6 assay, HEK293-P2X2/3 cells, agonist α,β-MeATP); format: cell-based; conditions: HEK293-P2X2/3 stably expressing cell line, FLIPR Tetra
T2 construct: expressed in transfected cells; host or cells: HEK293 (stably expressing)
T2 sequence (P56373 1-397): T1 sequence (P56373 1-397)
T2 sequence (Q9UBL9 1-471): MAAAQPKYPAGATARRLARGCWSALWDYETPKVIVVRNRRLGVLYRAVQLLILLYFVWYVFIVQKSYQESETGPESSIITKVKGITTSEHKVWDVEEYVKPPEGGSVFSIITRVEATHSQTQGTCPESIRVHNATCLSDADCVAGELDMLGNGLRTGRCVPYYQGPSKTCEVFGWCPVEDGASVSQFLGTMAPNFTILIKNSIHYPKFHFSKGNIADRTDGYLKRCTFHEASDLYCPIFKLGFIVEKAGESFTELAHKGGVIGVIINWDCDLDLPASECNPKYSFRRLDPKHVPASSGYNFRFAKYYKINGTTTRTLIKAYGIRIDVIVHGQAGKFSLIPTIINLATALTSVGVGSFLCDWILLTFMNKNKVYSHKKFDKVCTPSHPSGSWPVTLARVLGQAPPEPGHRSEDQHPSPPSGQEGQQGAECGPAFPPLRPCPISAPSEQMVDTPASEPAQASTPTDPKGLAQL
Protocol: as §1, §2

SMILES | IC50 (Human P2X3 receptor) [nM] | IC50 (Human P2X2/3 receptor) [nM]
CC(C)c1cnc2c(c1Oc1cnc(N)nc1N)CCN2 [Compound C1, 5-((5-isopropyl-2,3-dihydro-1H-pyrrolo[2,3-b]pyridin-4-yl)oxy)pyrimidin-2,4-diamine] | 60.5 | 100
CC(C)c1cnc2[nH]ccc2c1Oc1cnc(N)nc1N [Compound C4, 5-((5-isopropyl-1H-pyrrolo[2,3-b]pyridin-4-yl)oxy)pyrimidin-2,4-diamine] | 86 | 80
